Here are results for 25 molecules from paper doi:10.1101/2024.06.05.597555v1 (biorxiv, 2024).

Where two headings read alike, the source gives them in different places. Where only a bound is given, the exact number is not on record here.

One series deals with DENV-2. The experiment in a line: microbe, parasite or virus in culture. Conditions: Dengue virus, DENV2, Vero, 48 h, read-out: % inhibition.
Series [1] concerns the target T1, NS2B(H)-NS3pro (DENV-2 NS2B-NS3 protease) (Dengue virus 2 Thailand/NGS-C/1944, UniProt P14340).
T1 sequence (P14340 1394-1433 limits assumed): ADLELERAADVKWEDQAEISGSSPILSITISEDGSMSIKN
T1 sequence (P14340 1476-1660 limits assumed): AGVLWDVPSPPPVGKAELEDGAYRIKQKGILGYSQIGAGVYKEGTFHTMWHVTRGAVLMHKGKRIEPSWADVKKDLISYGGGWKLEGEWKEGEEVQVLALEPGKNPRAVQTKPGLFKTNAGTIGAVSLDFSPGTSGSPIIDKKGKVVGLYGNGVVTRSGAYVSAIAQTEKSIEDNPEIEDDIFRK
The series is described as follows: fluorometric protease assay, AMC substrate. Format: biochemical. To be noted: pH 7.5, HEPES, CHAPS; substrate Bz-nKRR-AMC.

Series [2] is described as follows: in vitro. Further details: species or system DENV2proHeLa (HeLa). To be noted: human, denv2prohela cells.
For series [3], the target named is T2, DENV2proHeLa NS2B-NS3 protease (Dengue virus 2 Thailand/16681/84, UniProt P29990). The series is described as follows: cell-based. Also noted: species or system DENV2proHeLa (HeLa). Conditions: HeLa, read-out: % inhibition.
T2 sequence (P29990 1476-2093 limits assumed): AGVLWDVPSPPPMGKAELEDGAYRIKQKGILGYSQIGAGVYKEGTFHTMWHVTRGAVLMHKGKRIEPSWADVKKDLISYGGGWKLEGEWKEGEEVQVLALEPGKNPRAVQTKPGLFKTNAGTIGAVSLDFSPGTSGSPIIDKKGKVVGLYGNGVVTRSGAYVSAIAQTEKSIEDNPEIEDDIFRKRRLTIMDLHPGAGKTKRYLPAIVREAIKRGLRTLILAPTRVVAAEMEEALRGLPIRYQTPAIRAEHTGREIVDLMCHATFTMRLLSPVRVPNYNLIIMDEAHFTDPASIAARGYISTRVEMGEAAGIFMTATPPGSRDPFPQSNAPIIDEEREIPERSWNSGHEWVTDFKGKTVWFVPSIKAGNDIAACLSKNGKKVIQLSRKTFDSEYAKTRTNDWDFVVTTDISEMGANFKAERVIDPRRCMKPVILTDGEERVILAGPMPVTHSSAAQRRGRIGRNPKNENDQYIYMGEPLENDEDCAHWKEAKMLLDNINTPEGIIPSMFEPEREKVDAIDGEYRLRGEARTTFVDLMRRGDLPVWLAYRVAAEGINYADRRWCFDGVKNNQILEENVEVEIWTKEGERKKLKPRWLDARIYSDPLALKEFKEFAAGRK
T2 sequence (P29990 1346-1475 partner limits assumed): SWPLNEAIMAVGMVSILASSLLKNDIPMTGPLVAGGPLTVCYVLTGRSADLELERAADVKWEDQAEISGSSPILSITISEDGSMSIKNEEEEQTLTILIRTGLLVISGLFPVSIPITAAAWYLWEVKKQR
For series [4], the target named is T1, NS2B(H)-NS3pro (DENV-2 NS2B-NS3 protease). Conditions: read-out: IC50 (C7.5-HEPES AMC); AMC substrate, HEPES pH 7.5, CHAPS; inhibitor.
Series [5] addresses T2, DENV2proHeLa NS2B-NS3 protease. The series is described as follows: cell-based. Also noted: species or system DENV2proHeLa (HeLa).
The target in series [6] is T1, NS2B(H)-NS3pro (DENV-2 NS2B-NS3 protease). The experiment in a line: biochemical. Conditions: read-out: % inhibition.
Series [7] concerns the target T2, DENV2proHeLa NS2B-NS3 protease. The series is described as follows: cell-based.
Series [8] is described as follows: in vitro. Further details: species or system DENV2proHeLa (HeLa). Conditions: human, denv2prohela cells. This is another data set of the same source.
In series [9] the target is T2, DENV2proHeLa NS2B-NS3 protease. The series is described as follows: cell-based. Also noted: species or system DENV2proHeLa (HeLa). Conditions: HeLa, read-out: % inhibition. The source holds these as a separate data set.
The nature of series [10]: in vitro. Also noted: species or system DENV2proHeLa (HeLa). To be noted: human, denv2prohela cells. This is another data set of the same source.
For series [11], the target named is T2, DENV2proHeLa NS2B-NS3 protease. The experiment in a line: cell-based. Also noted: species or system DENV2proHeLa (HeLa). Conditions: HeLa, read-out: % inhibition. The source holds these as a separate data set.
In series [12] the target is T1, NS2B(H)-NS3pro (DENV-2 NS2B-NS3 protease). The series is described as follows: biochemical. Conditions: read-out: % inhibition. This is another data set of the same source.
Series [13] concerns the target T2, DENV2proHeLa NS2B-NS3 protease. The series is described as follows: cell-based. Further details: species or system DENV2proHeLa (HeLa). The source holds these as a separate data set.
Series [14] shares this target. The series is described as follows: cell-based. Further details: species or system DENV2proHeLa (HeLa). Conditions: HeLa, read-out: % inhibition. This is another data set of the same source.
The nature of series [15]: in vitro. Further details: species or system DENV2proHeLa (HeLa). To be noted: human, denv2prohela cells. This is another data set of the same source.
[16] abbreviates: read-out: DENV2proHeLa EC50, inhibitor.

One may read the inhibition as the relative decrease from the control value, in per cent. As to `COc1ccc(/C=C/C(=O)C(=O)NC(C)(C)C)cc1OC` [GG-80-1], the inhibition at 25 µM in the series with DENV-2 was determined as 97%.
As to `CC(C)(C)NC(=O)C(=O)/C=C/c1c[nH]c2ccccc12` [GG-92], the inhibition at 25 µM with DENV-2 came out at 40%.
As usually defined, the IC50 is the concentration that inhibits the measured activity by half. `NC(=O)c1cccc(NC(=O)[C@@H](NC(=O)c2ccc(Oc3ccccc3)cc2)c2ccc(OCc3ccccc3)cc2)c1` [compound 1] had a half-maximal inhibitory concentration (IC50) in series [1] of 13 µM.
A word on the CC50: it is the concentration that lowers cell viability or growth by half. A word on the EC50: it is the concentration giving half of the maximal effect. `CC(C)Cc1ccc(C(C)C(=O)N[C@H](C(=O)Nc2cccc(C(N)=O)c2)c2ccc(OCc3ccccc3)cc2)cc1` (stereo partly drawn) [compound 3, 3] displayed a CC50 in “in vitro [2]” of over 25 µM. Also, the inhibition at 12.5 µM in series [3] was 84%. In addition, the IC50 in [4] worked out at 8 µM. Also, the concentration for a half-maximal effect (EC50) in series [5] was determined as 3.8 µM.
`CC(C(=O)N[C@H](C(=O)Nc1cccc(C(N)=O)c1)c1ccc(OCc2ccccc2)cc1)c1cccc(Oc2ccccc2)c1` (stereo partly drawn) [compound 4, 4] returned a CC50 in the series “in vitro [2]” of over 50 µM. Moreover, the inhibition at 12.5 µM in [3] is 86%. In series [4], the 50% inhibitory concentration (IC50) stood at 9.7 µM. Besides, the inhibition at 50 µM in series [6] was found to be 100%. For the same molecule, in series [5] (setting [16]), the EC50 turned out to be 4 µM. Also, the inhibition at 25 µM in the series with DENV-2 amounted to 85%.
On to `NC(=O)c1cccc(NC(=O)[C@@H](NC(=O)c2ccc(-c3ccccc3)o2)c2ccc(OCc3ccccc3)cc2)c1` [compound 5, 5], for which the 50% cytotoxic concentration (CC50) in “in vitro [2]” was over 100 µM. In series [3], the inhibition at 12.5 µM came to 85%. For the same molecule, in series [4], the IC50 was 9.3 µM. Also, the inhibition at 50 µM in series [6] is 100%. Moreover, in [5] (setting [16]), the concentration giving a half-maximal response (EC50) was determined as 5.9 µM. In the series on DENV-2, the inhibition at 25 µM was 96%.
With `CC(C(=O)NCC1(CC(=O)N[C@H](C(=O)Nc2cccc(C(N)=O)c2)c2ccc(OCc3ccccc3)cc2)CCCCC1)c1ccc2c(c1)[nH]c1ccc(Cl)cc12` (stereo partly drawn) [compound 6, 6], the CC50 in “in vitro [2]” is over 50 µM. In addition, the inhibition at 12.5 µM in series [3] was 60%. Further, the IC50 in series [4] came out at 8 µM. Moreover, the inhibition at 50 µM in [6] came to 99%. The half-maximal effective concentration (EC50) in [5] (setting [16]) was determined as 2.9 µM.
As to `NC(=O)c1cccc(NC(=O)[C@@H](NC(=O)c2ccc(Nc3ccccc3)cc2)c2ccc(OCc3ccccc3)cc2)c1` [compound 7], the CC50 in “in vitro [2]” is at least 100 µM. Also, in [7], a half-maximal effect (EC50) was put at 0.7 µM. Moreover, in [3], the inhibition at 12.5 µM was 93%. Also, the inhibition at 50 µM in series [6] is 99%. Moreover, the inhibition at 25 µM in the series on DENV-2 is under 10%.
Regarding `COc1cc(C(=O)N[C@H](C(=O)Nc2cccc(C(N)=O)c2)c2ccc(OCc3ccccc3)cc2)ccc1Oc1ccccc1` [compound 8, 8], in the series “in vitro [2]”, the 50% cytotoxic concentration (CC50) was over 100 µM. Moreover, the inhibition at 12.5 µM in series [3] stood at 86%. Further, in [4], the IC50 was determined as 12 µM. Further, the inhibition at 50 µM in series [6] amounted to 99%. Also, the EC50 in [5] came to 1.4 µM.
Turning to `NC(=O)c1cccc(NC(=O)[C@@H](NC(=O)Cc2ccccc2Nc2c(Cl)cccc2Cl)c2ccc(OCc3ccccc3)cc2)c1` [compound 9, 9], in the series “in vitro [2]”, the CC50 was over 50 µM. Also, in series [3], the inhibition at 12.5 µM amounted to 60%. Further, the IC50 in [4] worked out at 10 µM. Besides, the inhibition at 50 µM in [6] amounted to 99%. The EC50 in [5] was found to be 8.6 µM.
With `COc1ccc2cc([C@H](C)C(=O)N[C@H](C(=O)Nc3cccc(C(N)=O)c3)c3ccc(OCc4ccccc4)cc3)ccc2c1` [compound 10, 10], the CC50 in “in vitro [2]” was over 100 µM. For the same molecule, the inhibition at 12.5 µM in series [3] was 71%. In addition, in series [4], the half-maximal inhibitory concentration (IC50) worked out at 12 µM. Further, the EC50 in series [5] (setting [16]) came out at 3.7 µM.
For the molecule `NC(=O)c1cccc(NC(=O)[C@@H](NC(=O)Cc2ccc(Oc3ccccc3)cc2)c2ccc(OCc3ccccc3)cc2)c1` [compound 11, 11], in the series “in vitro [2]”, the CC50 was over 50 µM. The inhibition at 12.5 µM in series [3] is 78%. Moreover, in series [4], the IC50 stood at 14 µM. Further, the inhibition at 50 µM in series [6] worked out at 99%. In [5], this molecule displayed an EC50 of 6.9 µM.
Consider `CC(CC(=O)N[C@H](C(=O)Nc1cccc(C(N)=O)c1)c1ccc(OCc2ccccc2)cc1)CC(C)(C)C` (stereo partly drawn) [compound 16], for which half-maximal inhibition in [1] (IC50) was put at 11 µM. This molecule yielded a half-maximal effective concentration (EC50) in series [7] of 11 µM. This molecule returned a CC50 in the series “in vitro [8]” of at least 100 µM. The inhibition at 12.5 µM in [9] is 61%. Also, the inhibition at 25 µM with DENV-2 amounted to 98%.
On to `NC(=O)c1cccc(NC(=O)[C@@H](NC(=O)c2cc(O)n(-c3ccccc3)n2)c2ccc(OCc3ccccc3)cc2)c1` [compound 27], for which the IC50 in [1] amounted to 30 µM. In “in vitro [8]”, this molecule had a CC50 of over 50 µM. The inhibition at 12.5 µM in [9] came out at 24%.
The molecule `NC(=O)c1cccc(NC(=O)[C@@H](NC(=O)c2ccc(Oc3ccccc3)nc2)c2ccc(OCc3ccccc3)cc2)c1` [compound 33] showed a half-maximal inhibitory concentration (IC50) in series [1] of 34 µM. The same molecule returned a 50% cytotoxic concentration (CC50) in the series “in vitro [10]” of over 100 µM. In [7], the EC50 turned out to be 8.8 µM. In series [11], the inhibition at 12.5 µM amounted to 55%. The inhibition at 50 µM in [12] turned out to be 70%.
Molecule `CC(C)CCC(=O)N1CCC(C(=O)N[C@H](C(=O)Nc2cccc(C(N)=O)c2)c2ccc(OCc3ccccc3)cc2)CC1` [compound 34, 34] yielded a 50% cytotoxic concentration (CC50) in the series “in vitro [10]” of over 100 µM. A half-maximal response in [13] (EC50) required 11 µM. In addition, in series [11], the inhibition at 12.5 µM is 53%. Besides, the inhibition at 50 µM in series [12] came out at 69%.
`Cc1nc(-c2ccncc2)sc1C(=O)N[C@H](C(=O)Nc1cccc(C(N)=O)c1)c1ccc(OCc2ccccc2)cc1` [compound 35, 35] registered a CC50 in “in vitro [10]” of over 50 µM. Moreover, the inhibition at 12.5 µM in series [11] was 78%. The inhibition at 50 µM in series [12] turned out to be 69%.
In “in vitro [10]”, `NC(=O)c1cccc(NC(=O)C(NC(=O)c2ccccc2)c2ccc(OCc3ccccc3)cc2)c1` (stereo not drawn) [compound 42, 42] registered a CC50 of over 100 µM. For the same molecule, in [11], the inhibition at 12.5 µM is 80%. The inhibition at 50 µM in series [12] turned out to be 56%.
For `NC(=O)c1cccc(NC(=O)C(CC2CCCCC2)NC(=O)c2ccc(Oc3ccccc3)cc2)c1` (stereo not drawn) [compound 64, 64], the inhibition at 12.5 µM in series [14] is 82%. In the series “in vitro [15]”, this molecule yielded a half-maximal cytotoxic concentration (CC50) of 40 µM.
In series [1], `NC(=O)c1cccc(NC(=O)C(Cc2ccc3ccccc3c2)NC(=O)c2ccc(Oc3ccccc3)cc2)c1` (stereo not drawn) [compound 65] registered an IC50 of 5.9 µM. Moreover, the inhibition at 12.5 µM in series [14] was found to be 55%. This molecule also came in with an EC50 in [7] of 7.4 µM. In addition, the CC50 in the series “in vitro [15]” was over 50 µM.
Take `NC(=O)c1cccc(NC(=O)C(CCc2ccccc2)NC(=O)c2ccc(Oc3ccccc3)cc2)c1` (stereo not drawn) [compound 66, 66]: the inhibition at 12.5 µM in series [14] was 67%. The molecule also returned a cytotoxic concentration (CC50) in the series “in vitro [15]” of over 50 µM.
Take `NC(=O)c1cccc(NC(=O)C(Cc2ccc(NCc3ccccc3)cc2)NC(=O)c2ccc(Oc3ccccc3)cc2)c1` (stereo not drawn) [compound 68]: the midpoint of inhibition in series [1], the IC50, lay at 15 µM. The CC50 in the series “in vitro [15]” is over 50 µM.
Take `NC(=O)c1cccc(NC(=O)C(Cc2ccccc2)NC(=O)c2ccc(Oc3ccccc3)cc2)c1` (stereo not drawn) [compound 70, 70]: the inhibition at 12.5 µM in [14] amounted to 55%. This molecule displayed a CC50 in the series “in vitro [15]” of over 50 µM.
The corresponding values for `NC(=O)c1cccc(NC(=O)C(CCC(=O)Nc2ccccc2)NC(=O)c2ccc(Oc3ccccc3)cc2)c1` (stereo not drawn) [compound 71, 71] are 45% and over 50 µM.
The corresponding values for `CC(C)CC(NC(=O)c1ccc(Oc2ccccc2)cc1)C(=O)Nc1cccc(C(N)=O)c1` (stereo not drawn) [compound 73, 73] are 36% and at least 50 µM.
